Series [1] has as its system brain slices containing the hippocampus (CA3 stimulation, CA1 recording). As to the kind of experiment: Electrophysiological LTP recording (fEPSP in hippocampal brain slices). The class given is cell-based, C57BL/6J mice. The conditions noted are these: for activation effects on LTP (in words): same detection method as Table 5. The protocol: Test Example 3 Electrophysiological LTP Recording
3.1 Preparation of Brain Slices:
C57BL/6J mice aged 6-8 weeks was taken and anesthetized, then quickly decapitated. The scalp was cut open, and removed the skull and dura mater. Quickly removed the whole brain and placed it in 0-4° C. artificial cerebrospinal fluid (ACSF) saturated with 95% O2 and 5% CO2 to cool it slightly. Resected the cerebellum and one-third of the forebrain, divided the brain into two halves along the midline, and dissected the hippocampus along the cortical margin from the medial side of the brain. The brain tissue containing the hippocampus was fixed on a slide dish with glue, and cut into 400-micron-thick brain slices in the coronal plane by a vibrating microtome. The brain slices were then placed in an incubation chamber on a nylon mesh submerged beneath the liquid surface, continuously supplied with a mixed gas, and incubated at 34° C. in a water bath for 0.5 h. The slices were then transferred to room temperature (26±1° C.) for further incubation until ready for use, with the experiment commencing 2-3 hours later.
3.2 In vitro brain slice potential recording:
Under direct visualization with a surgical microscope, a bipolar metal tungsten wire stimulation electrode with exposed tip was placed on the Schaffer collateral pathway of the CA3 region. The stimulation electrode was connected to the stimulator via an isolator, and the recording electrode was connected to a […] via a microelectrode amplifier, and then connected to data acquisition software.
3.3 Electrophysiological recording:
Before recording field excitatory postsynaptic potentials (fEPSPs), the brain slice was transferred to a recording chamber, and continuously perfused the cerebrospinal fluid in a water bath with a mixture of gases (95% 02, 5% CO2). The stimulation electrode was inserted into the CA3 region of the hippocampus, and the recording electrode was inserted into the CA1 region of the hippocampus. When approaching the target location, the insertion depth of the stimulation electrode and recording electrode was slowly and precisely adjusted. At the same time, a pulse with a width of 1 ms was applied every 10-20 s, and the stimulus intensity was adjusted until the optimal fEPSP was achieved. Then the electrode position was fixed, and a stimulus intensity achieving 30-40% of the maximum response elicited at the optimal fEPSP was set as a stimulus intensity to record a baseline of fEPSP. The recording was continued for 20-30 min to establish a stable baseline value. Subsequently, perfusion administration was performed (initial exploratory dose of 30 μM), with the administration duration ranging from 20-30 minutes (depending on the drug's efficacy). If the drug enhanced or reduced fEPSP, normal ACSF was used for elution for 40-60 minutes to observe whether the enhanced effect could be sustained over the long term: if there was no significant change in fEPSP, the experiment was terminated. […] Experimental data and images were processed using Clampfit software.
4. Data Statistics and Analysis:
All experimental data were expressed as mean±standard error (Mean f SEM). All statistical analyses were performed using one-way ANOVA. Significant differences were indicated as follows: *p≤0.05, **p≤0.01, ***p≤0.001. p>0.05 indicated no significant difference.

The nature of series [2]: Pharmacokinetic experiment (gavage, plasma). The conditions noted are these: rat, gavage (p.o.) 10 mg/kg; for AUC(0-t) / Cmax / Tmax: po. The class given is in vivo. The protocol: Test Example 1 Pharmacokinetic Experiment
Accurately weighed approximately 10 mg of the test sample, dissolved in DMSO to a total volume of 10%, then slowly added 0.5% MC solvent to a total volume of 90% while stirring, sonicated, vortexed, and obtained a solution of visually homogeneous formulation with a concentration of 1 mg/mL; freshly prepared before use.
Pipetted 0.2 mL of the sample into a 1.5 mL centrifuge tube and stored at −80° C. for use in the concentration analysis of the drug solution.
The animals were housed in rat cages and fasted for at least 10 hours prior to the experiment, but had access to water. On the day of the experiment, the animals were weighed and marked on the tail. Blank blood samples were collected prior to drug administration. Blood was collected from the tail vein.
• Route of administration: gavage (p.o.) • Dosage concentration: 1 mg/ml • Dosage: 10 mg/kg • Volume: 10 mL/kg • Procedure: Caught the rat with left hand wearing bite-resistant gloves, hold it upright, inserted the gavage needle into its mouth and throat, and injected the drug into its stomach after confirming that there was no obvious resistance.
Test animals were sampled at 0.5 h, 1 h, 2 h, 4 h, 6 h, 8 h, 12 h, and 24 h post-administration, collected 0.1-0.2 ml of whole blood into EDTA-Na2 anticoagulant tubes, inverted the tubes 3-4 times to mix thoroughly, and centrifuged at 4° C. and 2000 g for 5 minutes to separate the upper layer of plasma. The plasma was promptly transferred to −80° C. for storage and analysis. Blood collection was performed via the tail vein.
(§1) 5. Sample Analysis and Data Processing
A quantitative detection method for the target compounds was established using Shimadzu liquid chromatography and Triple Quad TM 6500+AB mass spectrometry. The concentration of the parent drug in plasma was analyzed. The analysis results were controlled for variability using quality control samples, and the accuracy of the quality control samples should be between 80% and 120%.
The non-compartmental model in the winnonlin Phoenix software was used to calculate the main pharmacokinetic parameters. These included the area under the pharmacokinetic curve (AUC(0-t) and AUC(0-∞)), elimination half-life (T1/2), maximum plasma concentration (Cmax), and time to reach maximum plasma concentration (Tmax).

Series [3] is described as follows: Brain-penetrating pharmacokinetic study (plasma, brain tissue). The class given is in vivo, Sprague-Dawley (SD) rat. The conditions noted are these: SD rat, gavage (p.o.) 10 mg/kg single dose; for Kp: Sprague-Dawley, brain/plasma, po, read-out: Ratio of total drug in Brain tissue/plasma(B/P).
Excerpt: Test Example 2 Brain-Penetrating Pharmacokinetic Study
Solvent for Administration: 5% DMSO+10% Solutol HS15+85% physiological saline
Formulation preparation process: weighed an appropriate amount of powder, added an appropriate volume of DMSO, vortexed, then added an appropriate volume of Solutol solution, vortexed, and finally added an appropriate amount of physiological saline, vortexed and sonicated to obtain a homogeneous, clear formulation solution.
Two samples of the formulation were retained before administration, and the remaining formulation after administration was stored at 2-8° C. for shipment.
Laboratory animals were housed in the animal facility of Suzhou Xihua New Drug Development Co., Ltd. (license number: SYXK(Su)2021-0019). The animal facility was equipped with an air conditioning system and had good ventilation. The indoor temperature was maintained 20° C.-26° C., and the humidity was maintained 40%-70%4. Artificial lighting was used in the animal rooms, with 12 hours of light and 12 hours of darkness (except when work lighting was required for experimental operations and cleaning). The experimental animals were allowed to eat and drink water freely.
After purchase, the animals were fed normally for at least 3 days. […] Each rat was marked with a tail tag. Animals in the oral administration group were fasted overnight on the day before administration and resumed feeding 4 hours after administration, and free access to water.
• Route of administration: gavage (p.o.) • Concentration: 1 mg/ml • Dose: 10 mg/kg • Volume: 10 mL/kg • Frequency: Single dose
Before administration, checked the condition of the drug formulation and ensured its uniformity by swirling, stirring, or shaking. Calculated the theoretical dosage volume for each SD rat in each group using the following formula.
4. Sample Collection and Processing
Samples were collected from experimental rats at 0.5 h, 1 h, 2 h, 4 h, 6 h, 8 h, and 24 h after administration.
Plasma: At each time point, 0.15 mL of whole blood was collected via the jugular vein and placed in a tube containing anticoagulant (3 μL of 15% EDTA-K2 solution). The tubes were stored on wet ice and centrifuged within 1 hour (2,000 g, 2-8° C., for 10 minutes) to obtain plasma. The plasma was stored in pre-chilled centrifuge tubes, rapidly frozen in dry ice, and then stored at −60° C. or lower in an ultra-low temperature freezer until LC-MS/MS analysis.
Cerebrospinal fluid: the rats was euthanized using the carbon dioxide method. ~50 μL of cerebrospinal fluid was collected using a puncture method, 1 mL syringe was used with the needle bevel facing upward and the needle tip nearly horizontal to puncture the subarachnoid space, secured the needle and slowly withdrew the cerebrospinal fluid. The sample was stored in dry ice within 30 minutes after collection, then transferred it to a −90~−60° C. environment.
Brain tissue: A cardiac perfusion was performed first, followed by brain tissue extraction. Under deep terminal anesthesia, approximately 8 milliliters of physiological saline were used for cardiac perfusion to flush the remaining blood from the brain tissue out of the circulation. After extraction, the brain tissue was gently washed once with frozen physiological saline, blotted up the water, weighed, and then transferred to a storage environment at −90~−60° C. for cryopreservation.
as §1
A quantitative detection method for the target compounds was established using Shimadzu liquid chromatography and Triple Quad TM 6500+AB mass spectrometry. The concentration of the parent drug in the sample was analyzed. The analysis results were controlled for variability using quality control samples, and the accuracy of the quality control samples should be between 80% and 120%.
Winnonlin Phoenix 8.1.0.3530 was used to calculate pharmacokinetic parameters: Tmax, Cmax, AUC(0-t), AUC(0-∞), Tu2, MRT(0-∞), etc. […]

Regarding `C[C@@H](c1ncccc1F)[C@@H]1NC(=O)C=C1OCc1ccc(F)cc1` [Compound T-76], the “activation effects on LTP (in words)” value in series [1] is “excellent activation effects on LTP”.

With `C[C@@H](OC1=CC(=O)N[C@H]1[C@@H](C)c1ccccn1)c1ccc(F)cc1` [Compound T-80], in series [1], the “activation effects on LTP (in words)” value is “excellent activation effects on LTP”.

One may read the AUC(0-t) as exposure summed from dosing to a finite time, without extrapolation to infinity. Read a high AUC(0-t) as high exposure. In general, Cmax refers to the maximum level reached in the sampled fluid or tissue. In general, Tmax refers to the time at which the peak concentration occurs. As to `C[C@@H](OC1=CC(=O)N[C@H]1Cc1ccccc1)c1ccc(F)cc1` [Compound T-47], in series [2], the AUC(0-t) stood at 6730 ng·h/mL, the highest level (Cmax) was 1890 ng/mL, the Tmax was 90 min and the “pharmacokinetic properties (in words)” value is “excellent pharmacokinetic properties”. In series [3] (brain tissue), the “Total drug exposure (AUC) in brain tissue” value (from here on “Total drug exposure (AUC)”) is 11452 ng·h/mL. Besides, the “Total drug exposure (AUC)” value in series [3] (plasma) was 5529 ng·h/mL. For the same compound, the Kp in series [3] amounted to 2.07. The “activation effects on LTP (in words)” value in series [1] is on record as “excellent activation effects on LTP”.

As to `C[C@@H](OC1=CC(=O)N[C@H]1[C@@H](C)c1ncccc1F)c1ccc(F)cc1` [Compound T-100], the “activation effects on LTP (in words)” value in series [1] is reported as “excellent activation effects on LTP”.

For the compound `C[C@@H](c1ccccc1)[C@@H]1NC(=O)C=C1OCc1ccc(F)cc1` [Compound T-95], in series [2], the AUC(0-t) was determined as 5800 ng·h/mL, the Cmax amounted to 1030 ng/mL, the Tmax was 49.8 min and the “pharmacokinetic properties (in words)” value is listed as “excellent pharmacokinetic properties”.

Regarding `C[C@@H](OC1=CC(=O)N[C@H]1Cc1ncccc1F)c1ccc(F)cc1` [Compound T-54], the “activation effects on LTP (in words)” value in series [1] was “excellent activation effects on LTP”.

As for `O=C1C=C(OCc2ccc(F)cc2)[C@H](Cc2ncccc2F)N1` [Compound T-36], in series [2], the AUC(0-t) came out at 2470 ng·h/mL, the Cmax is 1420 ng/mL and the Tmax amounted to 25.2 min. Also, the “activation effects on LTP (in words)” value in series [1] is given as “excellent activation effects on LTP”.

`[2H]C([2H])(OC1=CC(=O)N[C@H]1Cc1ccccc1)c1ccc(F)cc1` [Compound T-45]: in series [2], the AUC(0-t) is 3410 ng·h/mL, the highest level (Cmax) was 1880 ng/mL and the Tmax was 30 min.

Take `C[C@H](c1ccccn1)[C@@H]1NC(=O)C=C1O[C@H](C)c1ccc(F)cc1` [Compound T-79]: the “activation effects on LTP (in words)” value in series [1] was “excellent activation effects on LTP”.

As to `C[C@H](c1ccccn1)[C@@H]1NC(=O)C=C1OCc1ccc(F)cc1` [Compound T-73], the “activation effects on LTP (in words)” value in series [1] is “excellent activation effects on LTP”.

With `C[C@@H](c1ccccn1)[C@@H]1NC(=O)C=C1OCc1ccc(F)cc1` [Compound T-74], the “activation effects on LTP (in words)” value in series [1] is on record as “excellent activation effects on LTP”.

`C[C@H](c1ncccc1F)[C@@H]1NC(=O)C=C1O[C@H](C)c1ccc(F)cc1` [Compound T-99]: the “activation effects on LTP (in words)” value in series [1] was “excellent activation effects on LTP”.

As for `O=C1C=C(OCc2ccc(F)cc2)[C@H](Cc2ccccc2)N1` [Compound 50561, reference compound], in series [2], the AUC(0-t) is 2500 ng·h/mL, the peak level (Cmax) was 838 ng/mL and the Tmax came out at 79.8 min.

`O=C1C=C(OCc2ccc(F)cc2)[C@H](Cc2ccccn2)N1` [Compound T-01]: in series [2], the AUC(0-t) was found to be 3500 ng·h/mL, the Cmax amounted to 1020 ng/mL and the Tmax was 79.8 min. Further, the “Total drug exposure (AUC)” value in series [3] (brain tissue) was 1198 ng·h/mL. The “Total drug exposure (AUC)” value in series [3] (plasma) came to 1929 ng·h/mL. For the same compound, the Kp in series [3] came out at 0.621. The “electrical signal conduction in brain slices (in words)” value in series [1] (perfusion administration, hippocampal slices) is on record as “significantly enhanced electrical signal conduction in brain slices”. In addition, in series [1] (versus Compound 50561), the “activation of LTP compared with the control compound (in words)” value is “higher activation of LTP”.

For the compound `C[C@H](c1ncccc1F)[C@@H]1NC(=O)C=C1OCc1ccc(F)cc1` [Compound T-75], the “activation effects on LTP (in words)” value in series [1] is “excellent activation effects on LTP”.

Regarding `C[C@@H](OC1=CC(=O)N[C@H]1Cc1ccccn1)c1ccc(F)cc1` [Compound T-51], in series [2], the area under the curve AUC(0-t) was found to be 5700 ng·h/mL, the Cmax is 2970 ng/mL, the Tmax is 15 min and the “pharmacokinetic properties (in words)” value is on record as “excellent pharmacokinetic properties”. The “activation effects on LTP (in words)” value in series [1] is on record as “excellent activation effects on LTP”.
